According to PubChem BioAssay (NCI):
“And” between values parts separate entries of the source, which are not always exact repeats. Equal values may be shown once.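 Briefly, cells in 96-well plates were exposed to five compound concentrations for 48 h, and endpoints were estimated by linear interpolation. GI50: concentration for 50% inhibition of growth. At the TGI there is no net growth.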

Tests used:
Experiment in all cases: NCI tumour cell line growth inhibition, 48 h
[1] = system: IGROV1 ovarian
[2] = system: NCI-H460 lung
[3] = system: UO-31 renal
[4] = system: U251 CNS
[5] = system: A549 NSCLC
[6] = system: OVCAR-3 ovarian
[7] = system: UACC-257 melanoma
[8] = system: ACHN renal
[9] = system: RXF 393 renal
[10] = system: 786-0 renal

Compound	TGI [1]	TGI [2]	TGI [3]	TGI [4]	TGI [5]	TGI [6]	TGI [7]	TGI [8]	TGI [9]	TGI [10]	GI50 [1]	GI50 [2]	GI50 [3]	GI50 [4]	GI50 [5]	GI50 [6]	GI50 [7]	GI50 [8]	GI50 [9]	GI50 [10]
O=c1oc2ccccc2cc1-c1ccc([N+](=O)[O-])cc1	> 100 µM	> 100 µM	> 100 µM	> 51.9 µM	> 100 µM	> 100 µM	> 100 µM	> 100 µM	> 100 µM	> 100 µM										
CCNCCNc1cc(-c2ccc(Cl)cc2)c(C#N)c2nc3ccccc3n12	3.37 µM	3.37 µM	2.94 µM	3.27 µM	3.62 µM	2.85 µM	3.92 µM	2.89 µM	2.78 µM	2.87 µM	1680 nM	1790 nM	1490 nM	1700 nM	1920 nM	1450 nM	2180 nM	1480 nM	1440 nM	1490 nM
COC(=O)C(=O)C(C(=O)C(=O)Nc1ccc([N+](=O)[O-])cc1[N+](=O)[O-])c1nc2ccc([N+](=O)[O-])cc2[nH]c1=O (stereo not given)	> 100 µM	> 100 µM	> 100 µM	> 100 µM	> 100 µM	> 100 µM	> 100 µM	> 100 µM	> 100 µM	> 100 µM										
C[C@@H](Oc1cc(-c2cnn(C3CCNCC3)c2)cnc1N)c1c(Cl)ccc(F)c1Cl	> 10 µM	9.32 µM	4.74 µM	8.74 µM	> 10 µM	> 10 µM	3.15 µM	> 10 µM	3.11 µM	8.94 µM	2170 nM	662 nM	1080 nM	1980 nM	947 nM	3260 nM	1520 nM	2970 nM	1360 nM	2720 nM
COc1c(O)cc2oc3cc(O)c(CC=C(C)C)c(O)c3c(=O)c2c1C/C=C(\C)CCC=C(C)C	10.4 µM	10.2 µM	8.97 µM	10.6 µM	9.64 µM	9.71 µM	10.5 µM	9.4 µM	10.2 µM	11.6 µM	5390 nM	5660 nM	4620 nM	5890 nM	5100 nM	5310 nM	5630 nM	4980 nM	5530 nM	6360 nM
COc1cccc(-c2nc(-c3ccc(NS(=O)(=O)c4ccccc4)cc3)[nH]c2-c2ccnc(Br)c2)c1	> 100 µM	8.71 µM	6.89 µM	> 100 µM	> 100 µM	17.7 µM	30.3 µM	> 100 µM	5.73 µM	> 100 µM	3840 nM	2850 nM	2290 nM	2730 nM	3110 nM	3030 nM	3110 nM	2600 nM	2180 nM	2980 nM
c1ccc(Oc2c3ccccc3nc3ccccc23)cc1	15.8 µM	10.3 µM	19.1 µM	11 µM	27 µM	13.2 µM	26.3 µM	13.7 µM	15.1 µM	10.7 µM	4310 nM	3290 nM	5640 nM	3260 nM	4620 nM	3410 nM	9590 nM	3610 nM	3600 nM	3080 nM
Cc1ccc2c(/C=C/C(=O)c3cc(CN4CCOCC4)c(O)c4nc(C)ccc34)cc(CN3CCOCC3)c(O)c2n1	3.6 µM	9.37 µM	1.6 µM	2.58 µM	15.1 µM	4.6 µM	13.6 µM	2.06 µM	2.27 µM	5.45 µM	622 nM	385 nM	371 nM	412 nM	380 nM	875 nM	2620 nM	535 nM	851 nM	1400 nM
O=[N+]([O-])c1ccc2c(c1)OCCOCCOc1ccc([N+](=O)[O-])cc1OCCOCCO2	> 100 µM	> 100 µM	> 100 µM	> 100 µM	> 100 µM	> 100 µM	> 100 µM	> 100 µM	> 100 µM	> 100 µM										
O=C1CC2(CCCc3sccc32)C(=O)N1 (stereo not given)	> 100 µM	> 100 µM	> 100 µM	> 100 µM	> 100 µM	> 100 µM	> 100 µM	> 100 µM	> 100 µM	> 100 µM										
CC1/C=C/C=C/CC/C=C/C=C/C=C/C=C/C(OC2OC(C)C(O)C(N)C2O)CC2OC(CC(O)C(O)CCC(O)CC(O)CC(O)CC(=O)OC(C)C(C)C1O)CC(O)C2C(=O)O (stereo not given)	32.2 µM and 52.1 µg/mL	39.7 µM and 87.7 µg/mL	35.8 µM and 40.6 µg/mL	32.4 µM and 150 µg/mL	33 µM and 46.3 µg/mL	37.2 µM and 150 µg/mL	32.7 µM and 53.8 µg/mL	32.3 µM and 42.7 µg/mL	27.3 µM and 40.5 µg/mL	31.3 µM and 50.1 µg/mL	23.4 µg/mL	30.4 µg/mL	20 µg/mL	69.1 µg/mL	24.5 µg/mL	101 µg/mL	28.9 µg/mL	22.8 µg/mL	19.5 µg/mL	25.8 µg/mL
CC(C)(C)C(=O)Nc1ccccc1Br	> 100 µM	> 100 µM	> 100 µM	> 100 µM	> 100 µM	> 100 µM	> 100 µM	> 100 µM	> 100 µM	> 100 µM										
O=C(Nc1cccc(NS(=O)(=O)c2ccc(F)cc2)c1)c1ccc(-c2ccccc2)cc1	64.9 µM	14.7 µM	16.9 µM	19.2 µM	> 100 µM	15.3 µM	9.93 µM	42.7 µM	20.7 µM	> 100 µM	4380 nM	3420 nM	2560 nM	3920 nM	3340 nM	2990 nM	2760 nM	3650 nM	3650 nM	3690 nM
O=C1NC(=O)[C@@H](c2cn3c4c(cccc24)CCC3)[C@@H]1c1c[nH]c2ccccc12	> 10 µM and 23.2 µM	> 10 µM and 8.55 µM	> 10 µM and 27.1 µM	> 10 µM and 12.9 µM	> 10 µM and 16.4 µM	> 2.22 µM and 0.789 µM	> 10 µM and 29.8 µM	> 10 µM and 32.9 µM	> 10 µM and 2.91 µM	> 10 µM and 18.8 µM	592 nM and 833 nM	365 nM and 372 nM	552 nM and 519 nM	391 nM and 451 nM	617 nM and 516 nM	273 nM and 280 nM	712 nM and 2510 nM	661 nM and 829 nM	294 nM and 332 nM	544 nM and 809 nM
